One assay relates to A549. In words: Cytotoxicity against human A549 cells by MTT assay. The class given is functional, cell-based.
Another assay has as its system HCT-116. As to the kind of experiment: Cytotoxicity against human HCT116 cells by MTT assay. Type of assay: functional, cell-based.
Another assay deals with NCI-H460. In words: Cytotoxicity against human NCI-H460 cells by MTT assay. Type of assay: functional, cell-based. In general terms: Formazan colour is commonly taken as a measure of viable cells.
Assay [1] can be described thus: Inhibition of tubulin polymerization.

Structures are written as SMILES.

Regarding `CCOC(=O)Nc1ccc(S(=O)(=O)N2C[C@H](c3ccccc3)NC2=O)cc1CC`, the IC50 in the assay with A549 is 60 nM; with HCT-116, 70 nM; with NCI-H460 it was 70 nM.

Consider `CCc1cc(S(=O)(=O)N2C[C@H](c3ccccc3)NC2=O)ccc1NC(=O)NC(C)C`, for which the IC50 in the assay with A549 was determined as 100 nM; in the assay on HCT-116 it was 60 nM; in the assay with NCI-H460 it was 70 nM.

As for `CCc1cc(S(=O)(=O)N2C[C@H](c3ccccc3)NC2=O)ccc1NC(=O)c1ccc([N+](=O)[O-])cc1`, the IC50 in the assay with A549 amounted to 700 nM; in the assay with HCT-116, 500 nM; in the assay with NCI-H460, 800 nM.

As to `CCOC(=O)Nc1c(C)cc(S(=O)(=O)N2C[C@H](c3ccccc3)NC2=O)cc1C`, the IC50 in the assay with A549, with HCT-116 and with NCI-H460 was over 10000 nM each time.

On to `CCOC(=O)Nc1ccc(S(=O)(=O)N2C[C@H](c3ccccc3)NC2=O)c(C)c1C`, for which the figures for the IC50 in the assay with A549, in the assay with HCT-116 and with NCI-H460 were 300 nM, 350 nM and 300 nM, respectively.

As for `CCc1cc(S(=O)(=O)N2C[C@H](c3ccccc3)NC2=O)ccc1NC(=O)OCC(C)C`, the IC50 turned out to be 70 nM in the assay on A549, 60 nM with HCT-116 and 80 nM with NCI-H460.

With `CCCOC(=O)Nc1ccc(S(=O)(=O)N2C[C@H](c3ccccc3)NC2=O)cc1CC`, the IC50 with A549, in the assay with HCT-116 and in the assay on NCI-H460 was 60 nM in each case.

In the case of `CC1[C@H](c2ccccc2)NC(=O)N1S(=O)(=O)c1ccc(NC(=O)c2ccc(N)cc2)c(Cl)c1` (some centres not stated), the IC50 in the assay with A549, with HCT-116 and in the assay on NCI-H460 was over 10000 nM each time.

Take `COc1cccc2c1C(=O)c1c(O)c3c(c(O)c1C2=O)C[C@@](O)(C(=O)CO)C[C@@H]3O[C@H]1C[C@H](N)[C@H](O)[C@H](C)O1` [DOXORUBICIN]: the IC50 in the assay on HCT-116 is 400 nM; in the assay on NCI-H460, 456 nM.

`CCCCOC(=O)Nc1ccc(S(=O)(=O)N2C[C@H](c3ccccc3)NC2=O)cc1CC`: the IC50 in the assay on A549, with HCT-116 and in the assay with NCI-H460 was 200 nM each time.

Turning to `CCOC(=O)Nc1ccc(S(=O)(=O)N2C[C@H](c3ccccc3)NC2=O)cc1C`, the IC50 is 6000 nM in assay [1], 50 nM with A549, 70 nM with HCT-116 and 70 nM in the assay with NCI-H460.

Take `CCc1cc(S(=O)(=O)N2C[C@H](c3ccccc3)NC2=O)ccc1NC(=O)OC(C)C`: the IC50 in the assay with A549, with HCT-116 and in the assay on NCI-H460 was 60 nM in each case.

Turning to `CCc1cc(S(=O)(=O)N2C[C@H](c3ccccc3)NC2=O)ccc1NC(=O)OC`, the IC50 with A549 stood at 250 nM; with HCT-116, 200 nM; with NCI-H460 it was 300 nM.

As to `CCc1cc(S(=O)(=O)N2C[C@H](c3ccccc3)NC2=O)ccc1NC(=O)NC1CCCCC1`, the IC50 amounted to 500 nM in the assay with A549, 300 nM with HCT-116 and 300 nM with NCI-H460.

On to `CCc1cc(S(=O)(=O)N2C[C@H](c3ccccc3)NC2=O)ccc1NC(=O)c1ccc(N)cc1`, for which the IC50 with A549 turned out to be 220 nM; in the assay on HCT-116 it was 460 nM; in the assay with NCI-H460 it was 670 nM.

With `CCOC(=O)Nc1ccc(S(=O)(=O)N2C[C@H](c3ccccc3)NC2=O)cc1F`, the IC50 with A549 was found to be 3800 nM; in the assay on HCT-116 it was 5000 nM; in the assay on NCI-H460, 4500 nM.

Consider `Cc1cc(S(=O)(=O)N2C(=O)N[C@@H](c3ccccc3)C2C)ccc1NC(=O)c1ccc([N+](=O)[O-])cc1` (some centres not stated), for which the IC50 in the assay on A549, in the assay with HCT-116 and with NCI-H460 was over 10000 nM each time.

As to `CCOC(=O)Nc1ccc(S(=O)(=O)N2C(=O)N[C@@H](c3ccccc3)C2C)cc1C` (some centres not stated), the IC50 came to 5000 nM in the assay on A549, 5500 nM in the assay on HCT-116 and 5000 nM in the assay on NCI-H460.

Compound `Nc1ccc(C(=O)Nc2ccc(S(=O)(=O)N3C[C@H](c4ccccc4)NC3=O)cc2Cl)cc1` yielded an IC50 in assay [1] of 5500 nM. This lies in the single-digit micromolar range.

Regarding `Cc1cc(S(=O)(=O)N2C(=O)N[C@@H](c3ccccc3)C2C)ccc1NC(=O)c1ccc(N)cc1` (some centres not stated), the IC50 in the assay with A549, in the assay on HCT-116 and in the assay on NCI-H460 was over 10000 nM each time.

`CCOC(=O)Nc1ccc(S(=O)(=O)N2C(=O)N[C@@H](c3ccccc3)C2C)cc1Cl` (some centres not stated): the IC50 in the assay on A549 amounted to 6000 nM; in the assay with HCT-116 it was 5500 nM; with NCI-H460, 6000 nM.

Turning to `CCOC(=O)Nc1ccc(S(=O)(=O)N2C[C@H](c3ccccc3)NC2=O)cc1Cl`, the values for the IC50 in the assay with A549, with HCT-116 and with NCI-H460 were 20 nM, 200 nM and 20 nM, respectively.

As for `CC1[C@H](c2ccccc2)NC(=O)N1S(=O)(=O)c1ccc(NC(=O)c2ccc([N+](=O)[O-])cc2)c(Cl)c1` (some centres not stated), the IC50 in the assay with A549, in the assay with HCT-116 and in the assay with NCI-H460 was over 10000 nM throughout.

In general, IC50 refers to the midpoint of a concentration-inhibition curve. Higher therefore signals lower potency.

These data come from ChEMBL document CHEMBL1909508, “Structure-activity relationship study of arylsulfonylimidazolidinones as anticancer agents” (Bioorg Med Chem Lett, 2011).
